Source: PMC12567066, “Sustainable Synthesis of 1,2-Disubstituted Benzimidazoles as Promising α-Glucosidase Inhibitors: In Vitro and In Silico Evaluation” (Pharmaceuticals, 2025)
“Also recorded” adds a separate entry of the source. Like-named read-outs stand apart in the source and are kept apart here.

Columns and labels:
[1] = test system: insulin-degrading enzyme (IDE); set-up: method as in PMID 22355395; settings: towards insulin and β-amyloid, cited from earlier work
α-glucosidase = α-glucosidase (Saccharomyces cerevisiae, UniProt P53341); assay: biochemical; settings: for inhibition at 50 µM: 0.25 h; for α-Glucosidase % inib. at 50 μM: 15 min
Experimental: The α-glucosidase assay was performed as previously described. The enzyme from Saccharomyces cerevisiae (0.125 U/mL) solution was dissolved in 0.1 M sodium phosphate buffer (pH 6.8). Twenty microliters of test samples at various concentrations (0.005–50 μM) were mixed with the enzyme solution in microplate wells and incubated for 15 min at 37 °C. Subsequently, 20 μL of […] p-nitrophenyl α-D-glucopyranoside (pNPG) solution in 0.1 M phosphate buffer was added. After incubation at 37 °C for 15 min, the reaction was terminated by adding 50 μL of 0.2 M sodium carbonate solution. α-Glucosidase activity was determined spectrophotometrically at 405 nm on a 96-well microplate reader Fluostar (BMG LABTECH GmbH, Offenburg, Germany) by measuring the amount of p-nitrophenol released. DMSO control was used whenever required and the final concentration of DMSO was maintained below 8% v/v, which was found not to affect the enzyme activity. The IC50 values were determined by the interpolation of dose–response curves (Figure S2, Supplementary Material).
(§1) The percentage of inhibition of enzyme activity, for both enzymes, was calculated as (%) by the following equation: A−B/A × 100, where A represents the difference in the absorbance of the control sample between an incubation time of 0 and 1.0 min, and B represents the test sample’s absorbance difference in the same time range.

Caco-2 cells = assay: Cell viability MTT assay; format: cell-based, human; settings: 1–30 μM, 24 h
Experimental: Cells were treated with different concentrations of the compounds (1–30 μM) for 24 h and examined using the MTT assay.
The cellular cytotoxicity of compounds was investigated using a 3-(4,5-dimethylthiazol-2-yl)-2,5-diphenyl-tetrazolium bromide (MTT) assay as previously reported, with minor modifications. The CaCo-2 were exposed for 24 h to compounds at concentrations ranging from […]. Then, MTT reagent (0.5 mg/mL in DMEM) was added to each well. The plate was incubated for 3 h at 37 °C. The MTT solution was removed from the culture plate, and 100 μL of DMSO solvent was added to solubilize the water-insoluble formazan crystals formed in the cells. The absorbance was determined at 570 nm using a microplate reader (VANTAstar_BMG LABTECH GmbH, Ortenberg, Germany).

[2] = DPPH radical scavenging assay; settings: mean ± SD, three independent experiments
Experimental: Radical scavenging activity of the better derivatives was estimated according to the previously reported method with slight modification using the stable DPPH radical.
A solution of 0.1 mM DPPH• radical was added to various concentrations of compounds. The reaction mixture was incubated in the dark for 15 min and, thereafter, the absorbance was recorded at 517 nm (VANTAstar_BMG LABTECH GmbH, Germany). The decrease in absorbance of DPPH•, after addition of test compounds compared to the control, was used to calculate the antioxidant activity.
(§2) For each assay, the decrease in absorbance was used to calculate the antioxidant activity, which was expressed as the ability of the antioxidants to scavenge 50% of radical (EC50).

[3] = ABTS radical scavenging assay; settings: mean ± SD, three independent experiments
Experimental: This method is based on the capacity of an antioxidant to scavenge the free radical ABTS^+ [50].
Samples of each compound (5 μL) were added to 245 μL of ABTS solution. The reduction in the blue-green radical ABTS^+ by hydrogen-donating antioxidants was evaluated by measuring the absorbance at 734 nm (VANTAstar_BMG LABTECH GmbH, Ortenberg, Germany), after one minute of incubation. All the measurements were carried out at least three times.
as §2

[4] = target: T1, α-amylase from porcine pancreas (Sus scrofa, UniProt P00690); assay: α-amylase inhibition assay (CNPG3 substrate); format: biochemical; settings: 10 min, pH 7, mean ± SD, three independent assays, read-out: α-Amylase % inib. at 50 μM
T1 construct: 40 μL of α-amylase from porcine pancreas (1 mg/mL) was used; from tissue; host or cells: porcine pancreas
T1 sequence (P00690 16-511): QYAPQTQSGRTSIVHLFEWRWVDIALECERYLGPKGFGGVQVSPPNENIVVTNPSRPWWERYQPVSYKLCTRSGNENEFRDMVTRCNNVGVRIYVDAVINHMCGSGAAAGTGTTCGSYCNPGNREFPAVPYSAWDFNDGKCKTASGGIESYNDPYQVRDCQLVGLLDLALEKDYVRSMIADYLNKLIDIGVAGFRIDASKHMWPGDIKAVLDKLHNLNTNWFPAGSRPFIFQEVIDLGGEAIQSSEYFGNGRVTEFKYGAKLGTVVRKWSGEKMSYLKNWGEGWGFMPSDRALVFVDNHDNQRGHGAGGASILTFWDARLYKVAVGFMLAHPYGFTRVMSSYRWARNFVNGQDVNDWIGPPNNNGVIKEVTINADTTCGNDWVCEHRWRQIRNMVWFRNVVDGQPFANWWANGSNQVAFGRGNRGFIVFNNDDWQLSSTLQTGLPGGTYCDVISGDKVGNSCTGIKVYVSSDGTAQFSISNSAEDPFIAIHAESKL
Experimental: The α-amylase assay was conducted as described in previous studies. A reaction mix containing 60 μL of […] sodium phosphate buffer at pH 7.0, 20 μL of 1 M NaCl and 40 μL of α-amylase from porcine pancreas (1 mg/mL) was used. The solution was incubated in the absence or presence of compounds at 37 °C for 10 min. After incubation, 80 μL of a 2.5 μM 2-chloro-4-nitrophenyl α-D-maltotrioside (CNPG3) solution was added as the substrate and 2-chloro-nitrophenol released by the enzymatic hydrolysis was monitored at 405 nm, using a microplate reader (Fluostar BMG LABTECH GmbH, Offenburg, Germany). The results of all the assays described above were expressed as a percentage of the blank control.
as §1

hPreP = test system: hPreP; set-up: method as in PMID 24602793; settings: cited from earlier work
V. cholerae = settings: cited from earlier work
B. cereus = test system: B. cereus; set-up: method as in PMID 22047695; settings: cited from earlier work
S. dysenteriae = settings: cited from earlier work
[5] = mean ± SD, three independent assays, read-out: α-Glucosidase IC50
[6] = pH 6.8, 50 μM, mean ± SD, three independent assays, read-out: α-Glucosidase % inib. at 50 μM
[7] = 50 μM, mean ± SD, three independent assays

α-glucosidase, sequence (P53341 whole entry): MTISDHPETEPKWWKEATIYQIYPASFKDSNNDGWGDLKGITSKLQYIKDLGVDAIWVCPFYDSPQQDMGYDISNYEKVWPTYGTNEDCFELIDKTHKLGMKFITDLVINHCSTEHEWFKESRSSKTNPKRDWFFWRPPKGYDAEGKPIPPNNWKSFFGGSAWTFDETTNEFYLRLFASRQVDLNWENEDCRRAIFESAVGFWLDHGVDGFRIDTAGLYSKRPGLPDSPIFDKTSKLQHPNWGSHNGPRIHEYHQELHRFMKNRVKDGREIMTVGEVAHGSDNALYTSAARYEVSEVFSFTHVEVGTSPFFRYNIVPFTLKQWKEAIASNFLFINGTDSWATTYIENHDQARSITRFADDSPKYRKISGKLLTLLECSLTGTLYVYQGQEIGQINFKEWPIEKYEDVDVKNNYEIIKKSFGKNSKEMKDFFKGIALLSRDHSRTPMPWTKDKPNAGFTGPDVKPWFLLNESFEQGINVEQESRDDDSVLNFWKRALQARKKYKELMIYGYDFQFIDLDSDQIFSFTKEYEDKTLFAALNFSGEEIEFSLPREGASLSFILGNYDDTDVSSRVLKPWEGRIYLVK

O=[N+]([O-])c1cc(Cn2c(-c3ccc(Cl)c([N+](=O)[O-])c3)nc3ccccc32)ccc1Cl [3k, 1-(4-Chloro-3-nitrobenzyl)-2-(4-chloro-3-nitrophenyl)-1H-benzo[d]imidazole]
Effect on IDE activity [1]: actively stimulate IDE activity
Effect on IDE activity ([1]; listed as IV): improves the activity of insulin-degrading enzyme (IDE)

Cc1cccc2c1nc(-c1ccc(Cl)c([N+](=O)[O-])c1)n2Cc1ccc(Cl)c([N+](=O)[O-])c1 [8k, 1-(4-Chloro-3-nitrobenzyl)-2-(4-chloro-3-nitrophenyl)-4-methyl-1H-benzo[d]imidazole]
IC50 (α-glucosidase): 7.1 µM
inhibition at 50 µM (α-glucosidase; pH 6.8, read-out: α-Glucosidase % inib. at 50 μM): 71.2%
Cytotoxicity / effect on Caco-2 cell viability (Caco-2 cells): none of these compounds affected Caco-2 cell viability; also recorded: no cytotoxic effects
DPPH EC50 [2]: no detectable antioxidant activity
ABTS EC50 [3]: no detectable antioxidant activity

Cc1cccc2c1nc(-c1cc(O)ccc1O)n2Cc1cc(O)ccc1O [8r, 2-(1-(2,5-Dihydroxybenzyl)-4-methyl-1H-benzo[d]imidazol-2-yl)benzene-1,4-diol]
IC50 (α-glucosidase; [5]): 13.8 ± 2.7 µM
Cytotoxicity / effect on Caco-2 cell viability (Caco-2 cells): none of these compounds affected Caco-2 cell viability; also recorded: no cytotoxic effects
EC50 [2]: 11.4 ± 1.2 µM
EC50 [3]: 13 ± 0.2 µM

Cc1cccc2c1nc(-c1cc(O)c(O)c(O)c1)n2Cc1cc(O)c(O)c(O)c1 [8s, 5-(4-Methyl-1-(3,4,5-trihydroxybenzyl)-1H-benzo[d]imidazol-2-yl)benzene-1,2,3-triol]
inhibition at 50 µM (α-glucosidase; [6]): 97.5%
IC50 (α-glucosidase; [5]): 0.39 ± 0.04 µM
Cytotoxicity / effect on Caco-2 cell viability (Caco-2 cells): none of these compounds affected Caco-2 cell viability; also recorded: no cytotoxic effects
EC50 [2]: 7.4 ± 0.2 µM
EC50 [3]: 4.6 ± 0.2 µM

O=[N+]([O-])c1cc(Cn2c(-c3ccc(Cl)c([N+](=O)[O-])c3)nc3ccccc32)ccc1Cl [C00031]
inhibition at 50 µM (α-glucosidase; [6]): 9.2 ± 1.6%
inhibition at 50 µM [4]: 10.2 ± 6.41%

Cc1cccc2c1nc(-c1ccc(Cl)c([N+](=O)[O-])c1)n2Cc1ccc(Cl)c([N+](=O)[O-])c1 [C00032]
α-Glucosidase % inib. at 50 μM (α-glucosidase; [7]): 71.2 ± 11.4%
inhibition at 50 µM [4]: 14 ± 0.15%

O=[N+]([O-])c1cc(Cn2c(-c3ccc(Cl)c([N+](=O)[O-])c3)nc3cc(Cl)ccc32)ccc1Cl [C00033]
inhibition at 50 µM (α-glucosidase; [6]): 17.3 ± 0.4%
inhibition at 50 µM [4]: 15.8 ± 0.5%

COc1ccccc1Cn1c(-c2ccccc2OC)nc2c(C)cccc21 [C00034]
inhibition at 50 µM (α-glucosidase; [6]): 35.3 ± 6.8%
inhibition at 50 µM [4]: 3.2 ± 2.3%

Cc1cccc2c1nc(-c1ccc(O)c([N+](=O)[O-])c1)n2Cc1ccc(O)c([N+](=O)[O-])c1 [C00035]
inhibition at 50 µM (α-glucosidase; [6]): 3.7 ± 1.4%
inhibition at 50 µM [4]: 4.3 ± 2.1%

Cc1cccc2c1nc(-c1ccc(Br)c(Br)c1)n2Cc1ccc(Br)c(Br)c1 [C00036]
inhibition at 50 µM (α-glucosidase; [6]): 38.2 ± 7.4%
inhibition at 50 µM [4]: 35.7 ± 3%

Cc1cccc2c1nc(-c1cc(O)ccc1O)n2Cc1cc(O)ccc1O [C00037]
inhibition at 50 µM (α-glucosidase; [6]): 94.2 ± 2.8%
inhibition at 50 µM [4]: 1.3 ± 0.3%

Cc1cccc2c1nc(-c1cc(O)c(O)c(O)c1)n2Cc1cc(O)c(O)c(O)c1 [C00038]
α-Glucosidase % inib. at 50 μM (α-glucosidase; [7]): 97.5 ± 0.5%

Cc1cccc2c1nc(-c1ccc(Cl)c([N+](=O)[O-])c1)n2Cc1ccc(Cl)c([N+](=O)[O-])c1 [C00039]
IC50 (α-glucosidase; read-out: α-Glucosidase IC50, mean ± SD, three independent assays): 7.1 ± 2.1 µM

Cc1cccc2c1nc(-c1cc(O)c(O)c(O)c1)n2Cc1cc(O)c(O)c(O)c1 [C00041]
IC50 (α-glucosidase; [5]): 0.39 ± 0.04 µM

O=[N+]([O-])c1ccc2c(c1)nc(-c1cc(Br)ccc1O)n2Cc1cc(Br)ccc1O [III]
hPreP agonism (hPreP): potent hPreP agonist

Oc1ccc(Br)cc1Cn1c(-c2cc(Br)ccc2O)nc2ccccc21 [II]
Antibacterial activity (V. cholerae): particularly active
Antibacterial activity (B. cereus): particularly active
Antibacterial activity (S. dysenteriae): particularly active

c1ccc(Cn2c(-c3ccccc3)nc3ccccc32)cc1 [I]
Antibacterial activity (V. cholerae): particularly active
Antibacterial activity (B. cereus): particularly active
Antibacterial activity (S. dysenteriae): particularly active

Cc1c(C)c2c(c(C)c1O)CCC(C)(C(=O)O)O2 (stereo not drawn) [Trolox, reference compound]
EC50 [2]: 25.3 ± 0.9 µM
EC50 [3]: 24.4 ± 0.2 µM
